In ChEMBL document CHEMBL1201862, “PubChem BioAssay data set” (2004):
Each block holds one compound with its values, some of them ahead of it. Activity calls are given as the source filed them.

Columns and labels:
Cytochrome P450 2C19 = Cytochrome P450 2C19 (Homo sapiens, UniProt P33261); assay: Cytochrome panel assay with activity outcomes. Panel member name: p450-cyp2c19 Compounds with AC50 equal or less than 10 uM are considered active; assay type: functional; details: read-out: AC50
Cytochrome P450 1A2 = target: T1, Cytochrome P450 1A2 (Homo sapiens, UniProt P05177);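 note: PubChem cytochrome P450 panel assay, CYP1A2 panel member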
T1 sequence (P05177 whole entry): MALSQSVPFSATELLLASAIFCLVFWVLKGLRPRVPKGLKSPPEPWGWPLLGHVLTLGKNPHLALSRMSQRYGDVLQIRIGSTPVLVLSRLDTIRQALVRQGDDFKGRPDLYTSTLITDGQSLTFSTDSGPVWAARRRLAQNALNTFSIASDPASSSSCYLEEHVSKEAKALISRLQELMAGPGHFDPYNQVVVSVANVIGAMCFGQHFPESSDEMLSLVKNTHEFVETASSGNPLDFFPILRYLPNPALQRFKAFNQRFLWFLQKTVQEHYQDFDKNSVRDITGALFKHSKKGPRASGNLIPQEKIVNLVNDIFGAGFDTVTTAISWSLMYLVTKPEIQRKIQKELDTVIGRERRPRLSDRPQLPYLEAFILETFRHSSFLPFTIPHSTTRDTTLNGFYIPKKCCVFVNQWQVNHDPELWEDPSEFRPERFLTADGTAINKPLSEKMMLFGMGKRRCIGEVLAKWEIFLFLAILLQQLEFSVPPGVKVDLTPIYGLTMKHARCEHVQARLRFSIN

[1] = target: T2, Heat shock factor protein 1 (Mus musculus, UniProt P38532); assay: HSF1 potentiators in luciferase reporter cells, confirmation, cell-based, NIH3T3, luminescence, dose retest (AID 435004); assay type: functional;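 note: stress induced by proteasome inhibitor MG132 added 30 min after compound; luciferase reporter driven by HSF1 response element in NIH3T3 cells; actives raise luminescence as potentiators of the MG132 stress response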
T2 sequence (P38532 whole entry): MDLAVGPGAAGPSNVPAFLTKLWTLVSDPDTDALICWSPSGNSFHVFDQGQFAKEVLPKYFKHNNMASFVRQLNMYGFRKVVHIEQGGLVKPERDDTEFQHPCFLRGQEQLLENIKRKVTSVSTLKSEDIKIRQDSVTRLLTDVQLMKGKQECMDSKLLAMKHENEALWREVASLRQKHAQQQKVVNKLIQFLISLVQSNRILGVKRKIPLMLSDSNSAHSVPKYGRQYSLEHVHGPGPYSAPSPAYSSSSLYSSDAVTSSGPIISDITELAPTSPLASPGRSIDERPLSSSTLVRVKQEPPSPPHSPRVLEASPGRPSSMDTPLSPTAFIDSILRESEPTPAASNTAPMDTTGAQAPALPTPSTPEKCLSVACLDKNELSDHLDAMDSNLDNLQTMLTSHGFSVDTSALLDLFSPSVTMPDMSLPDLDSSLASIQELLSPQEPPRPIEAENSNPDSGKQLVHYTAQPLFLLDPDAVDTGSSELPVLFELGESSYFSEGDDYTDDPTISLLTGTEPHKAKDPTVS

[2] = target: T3, Rac GTPase-activating protein 1 (Homo sapiens, UniProt Q9H0H5); assay: MgcRacGAP GTPase-activating activity inhibitors, confirmation, biochemical, ADP Hunter fluorescence, primary and confirmatory (AID 624330); assay type: functional
T3 sequence (Q9H0H5 whole entry): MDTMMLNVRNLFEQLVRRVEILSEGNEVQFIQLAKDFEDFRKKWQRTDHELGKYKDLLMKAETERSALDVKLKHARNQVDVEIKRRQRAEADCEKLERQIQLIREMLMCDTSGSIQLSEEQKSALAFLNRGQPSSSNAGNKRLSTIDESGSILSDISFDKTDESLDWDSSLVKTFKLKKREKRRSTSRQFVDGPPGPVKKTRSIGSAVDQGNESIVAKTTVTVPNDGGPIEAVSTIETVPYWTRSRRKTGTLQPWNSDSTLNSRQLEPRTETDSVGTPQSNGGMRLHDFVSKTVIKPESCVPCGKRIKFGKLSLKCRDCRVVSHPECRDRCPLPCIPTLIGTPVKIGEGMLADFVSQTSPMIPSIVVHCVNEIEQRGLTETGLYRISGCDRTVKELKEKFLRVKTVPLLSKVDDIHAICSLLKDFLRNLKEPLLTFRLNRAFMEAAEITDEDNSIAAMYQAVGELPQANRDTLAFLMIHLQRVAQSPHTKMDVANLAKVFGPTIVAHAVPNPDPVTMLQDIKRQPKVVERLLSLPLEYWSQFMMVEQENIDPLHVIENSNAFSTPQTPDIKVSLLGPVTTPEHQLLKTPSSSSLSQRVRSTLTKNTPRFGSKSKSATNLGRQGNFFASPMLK

INS1 = assay: beta cell apoptosis inhibitors, cytokine rescue, dose response, luminescence, retest (AID 449756); assay type: functional, cell-based; details: Rattus norvegicus;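 note: cell death triggered by IL-1 beta plus TNF-alpha plus IFN-gamma mixture; protective hits raise ATP signal compared with cytokine alone wells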
Cytochrome P450 2C9 = Cytochrome P450 2C9 (Homo sapiens, UniProt P11712)
Cytochrome P450 3A4 = Cytochrome P450 3A4 (Homo sapiens, UniProt P08684);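 note: CYP3A4 tested as one member of a cytochrome P450 panel screen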
[3] = inhibitors of intracellular T. cruzi replication, confirmation, NIH3T3 host cells, beta-gal luminescence (AID 2044); assay type: functional, cell-based;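 note: intracellular parasites grown in NIH/3T3 mouse fibroblasts as host cells; luminescent beta-galactosidase reporter signal from transgenic T. cruzi replicating inside host cells; inhibitors lower the luminescence signal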
[4] = cytotoxicity toward NIH3T3 fibroblasts, dose response, counter-screen, cell-based, ATP luminescence, mouse fibroblasts (AID 2010); assay type: functional;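 note: cells exposed to compound for about 90 hours before reading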
Cytochrome P450 2D6 = Cytochrome P450 2D6 (Homo sapiens, UniProt P10635);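 note: CYP2D6 member of a cytochrome P450 panel assay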
[5] = target: T4, Corticotropin-releasing factor receptor 2/Corticotropin-releasing factor-binding protein (Homo sapiens, UniProt P24387+Q13324); assay: activators of CRF receptor 2 with binding protein – uHTS hits, confirmation (AID 602473); assay type: functional; details: read-out: EC50_Mean
T4 sequence (Q13324 whole entry): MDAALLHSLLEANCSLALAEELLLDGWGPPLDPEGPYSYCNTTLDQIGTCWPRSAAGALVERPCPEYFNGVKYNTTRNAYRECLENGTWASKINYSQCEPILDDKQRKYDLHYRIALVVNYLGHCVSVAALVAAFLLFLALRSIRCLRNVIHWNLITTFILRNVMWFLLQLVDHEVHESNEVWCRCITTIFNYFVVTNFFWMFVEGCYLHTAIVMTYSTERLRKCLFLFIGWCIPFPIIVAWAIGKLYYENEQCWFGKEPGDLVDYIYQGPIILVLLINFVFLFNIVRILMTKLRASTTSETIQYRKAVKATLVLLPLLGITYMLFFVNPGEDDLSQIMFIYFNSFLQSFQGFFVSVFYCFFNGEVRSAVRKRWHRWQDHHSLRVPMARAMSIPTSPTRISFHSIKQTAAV
T4 sequence (P24387 whole entry): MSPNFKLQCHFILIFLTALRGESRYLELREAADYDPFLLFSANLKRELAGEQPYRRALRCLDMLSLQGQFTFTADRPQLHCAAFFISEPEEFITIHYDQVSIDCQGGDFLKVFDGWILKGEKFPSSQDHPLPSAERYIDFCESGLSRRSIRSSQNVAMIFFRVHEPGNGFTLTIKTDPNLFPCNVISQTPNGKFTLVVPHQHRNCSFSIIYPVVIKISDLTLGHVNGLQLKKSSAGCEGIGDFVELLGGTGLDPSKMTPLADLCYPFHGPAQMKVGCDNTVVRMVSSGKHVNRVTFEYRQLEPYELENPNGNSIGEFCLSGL

[6] = HEp-2 cell cytotoxicity, dose response, cytotoxicity control for RSV inhibitor project, HTS (AID 2410); assay type: functional; details: human respiratory syncytial virus

Cytochrome P450 2C19, sequence (P33261 whole entry): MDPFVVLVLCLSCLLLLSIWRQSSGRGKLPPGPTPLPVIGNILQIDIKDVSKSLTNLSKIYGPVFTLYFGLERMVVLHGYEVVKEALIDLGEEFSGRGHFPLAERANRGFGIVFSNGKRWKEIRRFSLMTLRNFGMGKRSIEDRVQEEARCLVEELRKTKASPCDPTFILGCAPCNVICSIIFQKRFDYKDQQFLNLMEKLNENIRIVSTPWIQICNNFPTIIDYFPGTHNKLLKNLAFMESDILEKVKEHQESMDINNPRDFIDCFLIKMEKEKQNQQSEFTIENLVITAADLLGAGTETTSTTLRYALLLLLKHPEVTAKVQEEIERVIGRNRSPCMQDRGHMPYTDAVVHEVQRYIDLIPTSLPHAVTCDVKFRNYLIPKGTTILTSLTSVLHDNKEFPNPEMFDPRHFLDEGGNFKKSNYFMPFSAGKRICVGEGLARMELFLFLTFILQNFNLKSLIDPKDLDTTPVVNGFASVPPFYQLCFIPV
Cytochrome P450 3A4, sequence (P08684 whole entry): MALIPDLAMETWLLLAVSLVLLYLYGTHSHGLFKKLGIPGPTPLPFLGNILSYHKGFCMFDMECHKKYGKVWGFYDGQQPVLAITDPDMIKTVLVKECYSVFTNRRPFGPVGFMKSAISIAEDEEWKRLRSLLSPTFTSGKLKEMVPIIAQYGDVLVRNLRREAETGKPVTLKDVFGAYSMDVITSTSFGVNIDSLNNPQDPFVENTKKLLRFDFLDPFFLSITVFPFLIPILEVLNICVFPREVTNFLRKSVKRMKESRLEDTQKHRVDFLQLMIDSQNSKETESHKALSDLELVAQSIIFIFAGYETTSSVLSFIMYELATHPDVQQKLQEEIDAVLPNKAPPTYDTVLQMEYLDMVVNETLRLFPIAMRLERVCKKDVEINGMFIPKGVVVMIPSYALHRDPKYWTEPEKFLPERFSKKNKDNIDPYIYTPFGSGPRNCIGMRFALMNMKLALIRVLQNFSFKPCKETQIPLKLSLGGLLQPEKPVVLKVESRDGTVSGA
Cytochrome P450 2D6, sequence (P10635 whole entry): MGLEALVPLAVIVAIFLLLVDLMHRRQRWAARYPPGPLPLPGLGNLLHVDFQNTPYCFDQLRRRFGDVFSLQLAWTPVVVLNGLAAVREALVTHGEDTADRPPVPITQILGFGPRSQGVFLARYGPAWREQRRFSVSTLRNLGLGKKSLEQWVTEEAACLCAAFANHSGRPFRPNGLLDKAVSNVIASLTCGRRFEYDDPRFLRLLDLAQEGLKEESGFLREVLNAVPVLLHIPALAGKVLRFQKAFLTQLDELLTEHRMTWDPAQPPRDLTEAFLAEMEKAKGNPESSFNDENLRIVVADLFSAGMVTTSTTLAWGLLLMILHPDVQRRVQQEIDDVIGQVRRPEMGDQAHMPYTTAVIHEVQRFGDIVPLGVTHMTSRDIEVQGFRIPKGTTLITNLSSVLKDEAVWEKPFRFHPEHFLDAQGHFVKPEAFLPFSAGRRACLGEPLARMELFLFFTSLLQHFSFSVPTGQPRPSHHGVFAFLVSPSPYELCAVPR
Cytochrome P450 2C9, sequence (P11712 whole entry): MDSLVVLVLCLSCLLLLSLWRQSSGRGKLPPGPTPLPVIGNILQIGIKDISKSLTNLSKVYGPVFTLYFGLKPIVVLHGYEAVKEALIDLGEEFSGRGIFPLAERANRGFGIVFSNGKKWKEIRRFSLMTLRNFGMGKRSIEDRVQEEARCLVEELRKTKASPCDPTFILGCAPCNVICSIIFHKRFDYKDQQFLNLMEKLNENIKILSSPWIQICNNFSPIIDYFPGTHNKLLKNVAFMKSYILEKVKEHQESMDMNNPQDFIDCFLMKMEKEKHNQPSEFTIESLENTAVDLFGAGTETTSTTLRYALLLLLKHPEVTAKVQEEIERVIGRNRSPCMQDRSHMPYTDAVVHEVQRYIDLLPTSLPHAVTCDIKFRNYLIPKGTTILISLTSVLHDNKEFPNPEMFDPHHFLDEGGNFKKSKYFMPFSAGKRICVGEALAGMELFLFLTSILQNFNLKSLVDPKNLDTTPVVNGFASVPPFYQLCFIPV

SMILES: Nc1cc[n+](CC(=O)Nc2ccccc2)cc1
EC50 [1]: > 260 µM (inactive)

SMILES: Cn1cnc([N+](=O)[O-])c1Sc1nc(N)nc2c1ncn2[C@H]1C[C@H](O)[C@@H](CO)O1
AC50 (Cytochrome P450 1A2): 6.31 µM (inconclusive)

SMILES: CC12CN(C(S)=Nc3ccccc3)CC(C)(CN(C(S)=Nc3ccccc3)C1)C2=O
EC50 [1]: > 260 µM (inactive)

SMILES: CC(C)c1nnc(SCc2ccc(CSc3nnc(C(C)C)n3N)cc2)n1N
EC50 [1]: > 260 µM (inactive)

SMILES: CCCCCNCc1cccc(Br)c1
AC50 (Cytochrome P450 1A2): 15.8 µM (inconclusive)

SMILES: COc1ccc(C2/C=C\CN(C(=O)C3CC3)[C@H](Cc3ccccc3)C(=O)N2Cc2ccc(F)cc2)cc1 (some centres not stated)
AC50 (INS1): 13.5 µM (active)

SMILES: CCOC(=O)C1(CCOc2ccccc2)CCN(Cc2cc(OC)c3c(c2)OCO3)CC1
EC50 [3]: 2.65 µM (active)
EC50 [1]: > 260 µM (inactive)
EC50 [4]: > 60 µM (not active)

SMILES: Cc1ccc(NCc2ccco2)cc1C
IC50 [2]: 123 µM (active)

SMILES: COc1ccc(Br)cc1CN(C)CC(=O)NCCc1ccccc1
IC50 [2]: 95.5 µM (active)

SMILES: Cc1nn(Cc2ccccc2Cl)c(C)c1NC(=O)CCCn1nc([N+](=O)[O-])c(Cl)c1C
EC50 [3]: 0.514 µM (active)
EC50 [1]: > 260 µM (inactive)
EC50 [4]: > 60 µM (not active)

SMILES: O=[N+]([O-])c1ccc(S(=O)(=O)N(Cc2cccnc2)Cc2cc3ccccc3nc2O)cc1
EC50 [3]: 1.84 µM (active)
EC50 [1]: > 260 µM (inactive)
EC50 [4]: > 60 µM (not active)

SMILES: Oc1ccc(NC(S)=Nc2ccc(F)cc2)cc1
IC50 [2]: 67.5 µM (active)

SMILES: c1ccc(Nc2nc(-c3ccoc3)nc3ccccc23)cc1
AC50 (Cytochrome P450 2C19): 31.6 µM (inconclusive)
AC50 (Cytochrome P450 3A4): 20 µM (inconclusive)
AC50 (Cytochrome P450 2D6): 39.8 µM (inconclusive)

SMILES: COc1ccc(S(=O)(=O)Nc2ccc3oc(C)c(C(C)=O)c3c2)cc1
AC50 (INS1): 6.13 µM (active)

SMILES: C=CCNC1=C(C(=O)CCC(=O)OC)C(=O)CC(C)(C)C1
AC50 (Cytochrome P450 1A2): 2.51 µM (inconclusive)

SMILES: COc1ccc(Nc2ccc3ccccc3c2)cc1
IC50 [2]: 53.4 µM (active)

SMILES: O=C(CCCc1nc(-c2ccc(Cl)cc2)no1)NC1CCCC1
AC50 (INS1): 10.2 µM (active)

SMILES: O=C1NC(=S)NC1=Cc1ccc(O)cc1
IC50 [2]: 9.78 µM (active)

SMILES: C/N=C\c1cc(-c2ccccc2)sc1O
IC50 [2]: 199 µM (active)

SMILES: Cc1ncc2c(c1O)COP(=O)(O)OC2
AC50 (Cytochrome P450 2C19): 5.01 µM (inconclusive)
AC50 (Cytochrome P450 1A2): 31.6 µM (inconclusive)

Now from value to compound, other results behind:

AC50 (Cytochrome P450 2C19): 22.4 µM (inconclusive)
AC50 (Cytochrome P450 1A2): 28.2 µM (inconclusive)
SMILES: NC1=NC2(CCCCCC2)n2c(nc3ccccc32)N1

EC50 [1]: 203 µM (active)
SMILES: COc1cc(OC)c(N(C)S(=O)(=O)c2cccc(C(=O)Nc3nnc(C4CC4)s3)c2)cc1Cl

EC50 [1]: > 260 µM (inactive)
SMILES: COc1ccc(CN2CCNC(=O)C2CC(=O)NCC2CCOCC2)cc1C (configuration not stated)

IC50 [2]: 169 µM (active)
SMILES: C=CCN(CC=C)C(=O)C1CCN(Cc2ccc(OCc3ccccc3)cc2)CC1

AC50 (Cytochrome P450 2C9): 11.2 µM (inconclusive)
AC50 (Cytochrome P450 3A4): 31.6 µM (inconclusive)
SMILES: O=C(Nc1nc(-c2ccccc2)cs1)c1ccc(Br)o1

IC50 [2]: 45 µM (active)
SMILES: O=[N+]([O-])c1ccc(N2CCN(c3ccc(O)cc3)CC2)c(Cl)c1

EC50 [1]: > 260 µM (inactive)
SMILES: O=C(CCN1C(=O)c2ccccc2C1=O)Nc1sc2c(c1C(=O)NCC1CCCO1)CCC2 (configuration not stated)

AC50 (Cytochrome P450 1A2): 15.8 µM (inconclusive)
SMILES: CCOC(=O)N1CCN(C(=O)CCn2nc(-c3ccccc3)ccc2=O)CC1

AC50 (Cytochrome P450 1A2): 20 µM (inconclusive)
SMILES: COc1ccc(NC(=O)N2CCC3(CC2)CCN(C(=O)c2ccco2)CC3)cc1

AC50 (Cytochrome P450 2C19): 39.8 µM (inconclusive)
AC50 (Cytochrome P450 1A2): 15.8 µM (inconclusive)
AC50 (Cytochrome P450 2D6): 20 µM (inconclusive)
SMILES: COC(=O)C1CC1C(NC(=O)[C@@H]1CCCN1)c1ccccc1 (some centres not stated)

AC50 (Cytochrome P450 2C19): 22.4 µM (inconclusive)
EC50 [5]: > 53 µM (inactive)
AC50 (Cytochrome P450 3A4): 25.1 µM (inconclusive)
SMILES: CCOC(=O)C1CCCN(c2ncnc3c2cnn3-c2ccc(Cl)cc2)C1 (configuration not stated)

AC50 (Cytochrome P450 2C19): 3.16 µM (inconclusive)
EC50 [1]: 2.74 µM (active)
SMILES: CCOC(=O)CSC1=NC(=O)/C(=C\c2ccc(Cl)cc2)S1
CC50 [6]: 18.9 µM (active)

AC50 (Cytochrome P450 3A4): 10 µM (inconclusive)
AC50 (Cytochrome P450 2D6): 25.1 µM (inconclusive)
SMILES: CN(C)C(=O)c1ccc(-c2cncnc2-n2ccnc2)cc1

EC50 [1]: > 260 µM (inactive)
SMILES: CCS(=O)(=O)N1CCc2nc(-c3ccccc3)sc2C1

IC50 [2]: 115 µM (active)
SMILES: CCN1CCCC1CNCC(=O)Nc1ccc(OC(F)(F)F)cc1 (configuration not stated)

IC50 [2]: 210 µM (active)
SMILES: Cc1cc(-c2ccccc2)nc2c(Br)c(=O)[nH]n12

EC50 [1]: > 260 µM (inactive)
SMILES: Cc1ccccc1-c1nnc(CS(=O)(=O)c2ccccc2)o1

IC50 [2]: 79 µM (active)
SMILES: CN1CCN(Cc2coc3c(Cl)cc(Cl)cc3c2=O)CC1

IC50 [2]: 150 µM (active)
SMILES: O=C(O)C1CCCCC1C(=O)Nc1ccc(S(=O)(=O)N2CCOCC2)cc1 (configuration not stated)
